Reference: patent US20140045758A1, “Methods for Treating and Preventing Cardiac Dysfunction in Septic Shock” (THE TRUSTEES OF COLUMBIA UNIVERSITY IN THE CITY OF NEW YORK, priority 2011, published 2014)

What was measured:
[1] = long term use; cited from earlier work
[2] = tested on: C57BL/6 mice; assay: Assessment of survival after lethal dose of LPS; assay type: in vivo
Source text: Control animals received saline and DMSO instead of LPS and rosiglitazone, respectively.

[3] = tested on: C57BL/6 mice; assay: LPS-mediated sepsis: cardiac function by 2D echocardiography (fractional shortening); assay type: in vivo; details: LPS 5 mg/kg + WY-14643 30 mg/kg; trend, p=0.09
Experimental: LPS (5 mg/kg) (Sigma) was administered intraperitoneally (i.p.) in mice. Control mice were treated with equal volume of saline. Cardiac function was assessed by 2D echocardiography 5-6 hours post-LPS administration and mice were sacrificed 2-3 hours later (7-9 hours post-LPS injection).
Two-dimensional echocardiography was performed on conscious 10 to 12 week-old male and female (n=5-8 per group) mice (Sonos5500 system; Philips Medical Systems).^129Echocardiographic images were recorded in a digital format. Images were then analyzed off-line by a single observer blinded to the murine genotype.^130

[4] = LPS 15 mg/kg, + DMSO (15 mice, F) or + rosiglitazone 33 mg/kg/day (17 mice, M)
[5] = Saline (no LPS) + rosiglitazone 33 mg/kg/day, 8 mice, M

SMILES | hepatic damage [1] | Survivors 24 h [2, 4] | Survivors 36 h [2, 4] | Survivors 48 h [2, 4] | Survivors 60 h [2, 4] | Survivors 72 h [2, 4] | Survivors 24 h [2, 5] | Survivors 36 h [2, 5] | Survivors 48 h [2, 5] | Survivors 60 h [2, 5] | Survivors 72 h [2, 5] | improved fractional shortening by [3] [%]
Cc1c(C)c2c(c(C)c1O)CCC(C)(COc1ccc(CC3SC(=O)NC3=O)cc1)O2 (stereo not shown) [troglitazone] | cause hepatic damage with long term use | – | – | – | – | – | – | – | – | – | – | –
CN(CCOc1ccc(CC2SC(=O)NC2=O)cc1)c1ccccn1 (stereo not shown) [rosiglitazone] | cause hepatic damage with long term use | 17 | 16 | 16 | 15 | 13 | 8 | 8 | 8 | 8 | 8 | –
Cc1cccc(Nc2cc(Cl)nc(SCC(=O)O)n2)c1C [WY-14643] | – | – | – | – | – | – | – | – | – | – | – | 25
